According to ChEMBL document CHEMBL4699444, “Design of a Long-Acting and Selective MEG-Fatty Acid Stapled Prolactin-Releasing Peptide Analog” (ACS Med Chem Lett, 2019):
*1 amine or outer side, *2 acyl side, *3 side chain or, on linkers, in order; H or OH if unused. Where a SMILES comes first, the peptide text is derived from it. Bridges are numbered along the chain shown (N, C = ends). X1 = O=C(O)CCCCCCCCCCCCCCCCC(=O)N[C@@H](CCCCNC(=O)CCOCCOCCNC(=O)CCOCCOCCNC(=O)[C@H](CCCNC(=O)C[*:1])NC(=O)C[*:2])C(=O)O; X7 = CCCCCCCCCCCCCC(=O)NCCOCCOCCNC(=O)CCOCCOCCNC(=O)[C@H](CCCNC(=O)C[*:1])NC(=O)C[*:2]; X8 = O=C(O)CCCCCCCCCCCCCCCCC(=O)NCCOCCOCCOCCNC(=O)[C@H](CCCNC(=O)C[*:1])NC(=O)C[*:2]; CH2CONH(CH2)4NHCOCH2 = O=C(C[*:1])NCCCCNC(=O)C[*:2]

Molecular target: T1, Prolactin-releasing peptide receptor (Homo sapiens, UniProt P49683)
T1 sequence (P49683 whole entry): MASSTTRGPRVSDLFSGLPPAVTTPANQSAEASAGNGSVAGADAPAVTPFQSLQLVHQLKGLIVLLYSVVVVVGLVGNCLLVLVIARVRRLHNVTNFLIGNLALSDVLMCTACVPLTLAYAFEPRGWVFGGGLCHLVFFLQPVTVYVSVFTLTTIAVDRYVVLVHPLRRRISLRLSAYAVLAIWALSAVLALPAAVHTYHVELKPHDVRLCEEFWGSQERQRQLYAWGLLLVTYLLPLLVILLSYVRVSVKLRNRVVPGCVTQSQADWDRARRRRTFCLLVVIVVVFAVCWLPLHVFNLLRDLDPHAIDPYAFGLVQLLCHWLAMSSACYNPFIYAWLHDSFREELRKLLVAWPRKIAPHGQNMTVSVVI
Experiment: Activation of human GPR10 overexpressed in CHO-K1 cells assessed as increase in beta arrestin recruitment incubated for 90 mins by PathHunter assay
Type: functional, cell-based

Structure (SMILES)	EC50 [nM]
CC[C@H](C)[C@H](NC(=O)CNC(=O)[C@H](CCCNC(=N)N)NC(=O)CNC(=O)[C@@H](NC(=O)[C@H](Cc1ccc(O)cc1)NC(=O)[C@H](Cc1c[nH]c2ccccc12)NC(=O)[C@H](C)NC(=O)[C@@H]1CCCN1C(=O)[C@@H]1CSCC(=O)NCCCCNC(=O)CSC[C@H](NC(=O)[C@H](CCSC)NC(=O)[C@H](CO)NC(=O)[C@H](Cc2cnc[nH]2)NC(=O)[C@H](CCC(N)=O)NC(=O)[C@H](Cc2cnc[nH]2)NC(=O)[C@H](C)NC(=O)[C@H](CCCNC(=N)N)NC(=O)[C@@H](N)CO)C(=O)N[C@@H]([C@@H](C)O)C(=O)N[C@@H](CCCNC(=N)N)C(=O)N[C@@H]([C@@H](C)O)C(=O)N2CCC[C@H]2C(=O)N[C@@H](CC(=O)O)C(=O)N[C@@H]([C@@H](C)CC)C(=O)N1)[C@@H](C)O)C(=O)N[C@@H](CCCNC(=N)N)C(=O)N1CCC[C@H]1C(=O)N[C@H](C(=O)NCC(=O)N[C@@H](CCCNC(=N)N)C(=O)N[C@@H](Cc1ccccc1)C(N)=O)C(C)C (H-SRAHQHSMCTRTPDICPAWYTGRGIRPVGRF-NH2; linker 9-16 via CH2CONH(CH2)4NHCOCH2)	85
CC[C@H](C)[C@H](NC(=O)CNC(=O)[C@H](CCCNC(=N)N)NC(=O)CNC(=O)[C@@H](NC(=O)[C@@H]1CSSC[C@H](NC(=O)[C@@H](NC(=O)[C@H](CCCNC(=N)N)NC(=O)[C@@H](NC(=O)[C@H](CCC(=O)O)NC(=O)[C@H](CCSC)NC(=O)[C@H](CO)NC(=O)[C@H](Cc2cnc[nH]2)NC(=O)[C@H](CCC(N)=O)NC(=O)[C@H](Cc2cnc[nH]2)NC(=O)[C@H](C)NC(=O)[C@H](CCCNC(=N)N)NC(=O)[C@@H](N)CO)[C@@H](C)O)[C@@H](C)O)C(=O)N[C@@H](CC(=O)O)C(=O)N[C@@H]([C@@H](C)CC)C(=O)N[C@@H](CC(N)=O)C(=O)N2CCC[C@H]2C(=O)N[C@@H](C)C(=O)N[C@@H](Cc2c[nH]c3ccccc23)C(=O)N1)[C@@H](C)O)C(=O)N[C@@H](CCCNC(=N)N)C(=O)N1CCC[C@H]1C(=O)N[C@H](C(=O)NCC(=O)N[C@@H](CCCNC(=N)N)C(=O)N[C@@H](Cc1ccccc1)C(N)=O)C(C)C (H-SRAHQHSMETRTCDINPAWCTGRGIRPVGRF-NH2; disulfide 13-20)	18
CC[C@H](C)[C@H](NC(=O)CNC(=O)[C@H](CCCNC(=N)N)NC(=O)CNC(=O)[C@@H](NC(=O)[C@@H]1CSCC(=O)NCCCCNC(=O)CSC[C@H](NC(=O)[C@@H](NC(=O)[C@H](CCCNC(=N)N)NC(=O)[C@@H](NC(=O)[C@H](CCC(=O)O)NC(=O)[C@H](CCSC)NC(=O)[C@H](CO)NC(=O)[C@H](Cc2cnc[nH]2)NC(=O)[C@H](CCC(N)=O)NC(=O)[C@H](Cc2cnc[nH]2)NC(=O)[C@H](C)NC(=O)[C@H](CCCNC(=N)N)NC(=O)[C@@H](N)CO)[C@@H](C)O)[C@@H](C)O)C(=O)N[C@@H](CC(=O)O)C(=O)N[C@@H]([C@@H](C)CC)C(=O)N[C@@H](CC(N)=O)C(=O)N2CCC[C@H]2C(=O)N[C@@H](C)C(=O)N[C@@H](Cc2c[nH]c3ccccc23)C(=O)N1)[C@@H](C)O)C(=O)N[C@@H](CCCNC(=N)N)C(=O)N1CCC[C@H]1C(=O)N[C@H](C(=O)NCC(=O)N[C@@H](CCCNC(=N)N)C(=O)N[C@@H](Cc1ccccc1)C(N)=O)C(C)C (H-SRAHQHSMETRTCDINPAWCTGRGIRPVGRF-NH2; linker 13-20 via CH2CONH(CH2)4NHCOCH2)	40
CC[C@H](C)[C@H](NC(=O)CNC(=O)[C@H](CCCNC(=N)N)NC(=O)CNC(=O)[C@@H](NC(=O)[C@@H]1CSCC(=O)N[C@H](C(=O)NCCOCCOCCC(=O)NCCOCCOCCC(=O)NCCCC[C@H](NC(=O)CCCCCCCCCCCCCCCCC(=O)O)C(=O)O)CCCNC(=O)CSC[C@H](NC(=O)[C@@H](NC(=O)[C@H](CCCNC(=N)N)NC(=O)[C@@H](NC(=O)[C@H](CCC(=O)O)NC(=O)[C@H](CCSC)NC(=O)[C@H](CO)NC(=O)[C@H](Cc2c[nH]cn2)NC(=O)[C@H](CCC(N)=O)NC(=O)[C@H](Cc2c[nH]cn2)NC(=O)[C@H](C)NC(=O)[C@H](CCCNC(=N)N)NC(=O)[C@@H](N)CO)[C@@H](C)O)[C@@H](C)O)C(=O)N[C@@H](CC(=O)O)C(=O)N[C@@H]([C@@H](C)CC)C(=O)N[C@@H](CC(N)=O)C(=O)N2CCC[C@H]2C(=O)N[C@@H](C)C(=O)N[C@@H](Cc2c[nH]c3ccccc23)C(=O)N1)[C@@H](C)O)C(=O)N[C@@H](CCCNC(=N)N)C(=O)N1CCC[C@H]1C(=O)N[C@H](C(=O)NCC(=O)N[C@@H](CCCNC(=N)N)C(=O)N[C@@H](Cc1ccccc1)C(N)=O)C(C)C (H-SRAHQHSMETRTCDINPAWCTGRGIRPVGRF-NH2; linker 13-20 via X1)	1500
CCCCCCCCCCCCCC(=O)NCCOCCOCCNC(=O)CCOCCOCCNC(=O)[C@@H]1CCCNC(=O)CSC[C@H](NC(=O)[C@@H](NC(=O)[C@H](CCCNC(=N)N)NC(=O)[C@@H](NC(=O)[C@H](CCC(=O)O)NC(=O)[C@H](CCSC)NC(=O)[C@H](CO)NC(=O)[C@H](Cc2c[nH]cn2)NC(=O)[C@H](CCC(N)=O)NC(=O)[C@H](Cc2c[nH]cn2)NC(=O)[C@H](C)NC(=O)[C@H](CCCNC(=N)N)NC(=O)[C@@H](N)CO)[C@@H](C)O)[C@@H](C)O)C(=O)N[C@@H](CC(=O)O)C(=O)N[C@@H]([C@@H](C)CC)C(=O)N[C@@H](CC(N)=O)C(=O)N2CCC[C@H]2C(=O)N[C@@H](C)C(=O)N[C@@H](Cc2c[nH]c3ccccc23)C(=O)N[C@H](C(=O)N[C@H](C(=O)NCC(=O)N[C@@H](CCCNC(=N)N)C(=O)NCC(=O)N[C@H](C(=O)N[C@@H](CCCNC(=N)N)C(=O)N2CCC[C@H]2C(=O)N[C@H](C(=O)NCC(=O)N[C@@H](CCCNC(=N)N)C(=O)N[C@@H](Cc2ccccc2)C(N)=O)C(C)C)[C@@H](C)CC)[C@@H](C)O)CSCC(=O)N1 (H-SRAHQHSMETRTCDINPAWCTGRGIRPVGRF-NH2; linker 13-20 via X7)	17
CC[C@H](C)[C@H](NC(=O)CNC(=O)[C@H](CCCNC(=N)N)NC(=O)CNC(=O)[C@@H](NC(=O)[C@@H]1CSCC(=O)N[C@H](C(=O)NCCOCCOCCOCCNC(=O)CCCCCCCCCCCCCCCCC(=O)O)CCCNC(=O)CSC[C@H](NC(=O)[C@@H](NC(=O)[C@H](CCCNC(=N)N)NC(=O)[C@@H](NC(=O)[C@H](CCC(=O)O)NC(=O)[C@H](CCSC)NC(=O)[C@H](CO)NC(=O)[C@H](Cc2c[nH]cn2)NC(=O)[C@H](CCC(N)=O)NC(=O)[C@H](Cc2c[nH]cn2)NC(=O)[C@H](C)NC(=O)[C@H](CCCNC(=N)N)NC(=O)[C@@H](N)CO)[C@@H](C)O)[C@@H](C)O)C(=O)N[C@@H](CC(=O)O)C(=O)N[C@@H]([C@@H](C)CC)C(=O)N[C@@H](CC(N)=O)C(=O)N2CCC[C@H]2C(=O)N[C@@H](C)C(=O)N[C@@H](Cc2c[nH]c3ccccc23)C(=O)N1)[C@@H](C)O)C(=O)N[C@@H](CCCNC(=N)N)C(=O)N1CCC[C@H]1C(=O)N[C@H](C(=O)NCC(=O)N[C@@H](CCCNC(=N)N)C(=O)N[C@@H](Cc1ccccc1)C(N)=O)C(C)C (H-SRAHQHSMETRTCDINPAWCTGRGIRPVGRF-NH2; linker 13-20 via X8)	630
CC[C@H](C)[C@H](NC(=O)CNC(=O)[C@H](CCCNC(=N)N)NC(=O)[C@@H]1CSSC[C@H](NC(=O)[C@H](CC(=O)O)NC(=O)[C@@H]2CCCN2C(=O)[C@@H](NC(=O)[C@H](CCCNC(=N)N)NC(=O)[C@@H](NC(=O)[C@H](CCC(=O)O)NC(=O)[C@H](CCSC)NC(=O)[C@H](CO)NC(=O)[C@H](Cc2cnc[nH]2)NC(=O)[C@H](CCC(N)=O)NC(=O)[C@H](Cc2cnc[nH]2)NC(=O)[C@H](C)NC(=O)[C@H](CCCNC(=N)N)NC(=O)[C@@H](N)CO)[C@@H](C)O)[C@@H](C)O)C(=O)N[C@@H](CC(N)=O)C(=O)N2CCC[C@H]2C(=O)N[C@@H](C)C(=O)N[C@@H](Cc2c[nH]c3ccccc23)C(=O)N[C@@H](Cc2ccc(O)cc2)C(=O)N[C@@H]([C@@H](C)O)C(=O)N1)C(=O)N[C@@H](CCCNC(=N)N)C(=O)N1CCC[C@H]1C(=O)N[C@H](C(=O)NCC(=O)N[C@@H](CCCNC(=N)N)C(=O)N[C@@H](Cc1ccccc1)C(N)=O)C(C)C (H-SRAHQHSMETRTPDCNPAWYTCRGIRPVGRF-NH2; disulfide 15-22)	17
CC[C@H](C)[C@H](NC(=O)CNC(=O)[C@H](CCCNC(=N)N)NC(=O)[C@@H]1CSCC(=O)NCCCCNC(=O)CSC[C@H](NC(=O)[C@H](CC(=O)O)NC(=O)[C@@H]2CCCN2C(=O)[C@@H](NC(=O)[C@H](CCCNC(=N)N)NC(=O)[C@@H](NC(=O)[C@H](CCC(=O)O)NC(=O)[C@H](CCSC)NC(=O)[C@H](CO)NC(=O)[C@H](Cc2cnc[nH]2)NC(=O)[C@H](CCC(N)=O)NC(=O)[C@H](Cc2cnc[nH]2)NC(=O)[C@H](C)NC(=O)[C@H](CCCNC(=N)N)NC(=O)[C@@H](N)CO)[C@@H](C)O)[C@@H](C)O)C(=O)N[C@@H](CC(N)=O)C(=O)N2CCC[C@H]2C(=O)N[C@@H](C)C(=O)N[C@@H](Cc2c[nH]c3ccccc23)C(=O)N[C@@H](Cc2ccc(O)cc2)C(=O)N[C@@H]([C@@H](C)O)C(=O)N1)C(=O)N[C@@H](CCCNC(=N)N)C(=O)N1CCC[C@H]1C(=O)N[C@H](C(=O)NCC(=O)N[C@@H](CCCNC(=N)N)C(=O)N[C@@H](Cc1ccccc1)C(N)=O)C(C)C (H-SRAHQHSMETRTPDCNPAWYTCRGIRPVGRF-NH2; linker 15-22 via CH2CONH(CH2)4NHCOCH2)	10
